Test results from patent US11584747B2, “Substituted pyridopyrimidinonyl compounds useful as T cell activators” (BRISTOL-MYERS SQUIBB COMPANY, priority 2019, dated 2023).
Read-outs that look alike come from different tables or passages of the source.

Key:
[1] = molecular target: human DGKζ (Homo sapiens (Human), UniProt Q13574); assay: DGKζ LIPGLO assay (extruded liposome substrate, ADP-Glo luminescence); type: biochemical
[2] = molecular target: human DGKα (Homo sapiens (Human), UniProt P23743); assay: DGKα ADPGLO assay (detergent/lipid micelle substrate); type: biochemical
Experimental: DGK Alpha ADPGLO (Truncated) IC50 (uM)
The detergent/lipid micelle was prepared by combining 15 g phosphatidylserine (Avanti 840035P) and 1 g diacylglycerol (8008110) and dissolving into 150 mL chloroform in a 2 L round bottom flask. Chloroform was removed under high vacuum by rotary evaporation. […] The lipid/detergent solution was split into 5 mL aliquots and stored at −80° C.

[3] = tested on: human venous whole blood (IFN-γ); assay: Human whole blood IFN-γ assay; type: cell-based
Experimental: Human venous whole blood (22.5 μL per well), obtained from healthy donors, was pre-treated with compounds for one hour at 37° C. in a humidified 95% air/5% CO2 incubator. The blood was stimulated with 2.5 μL anti-human CD3 and anti-CD28 mAb at a final concentration of 1 μg/mL each for 24 hours at 37° C. IFN-γ in the supernatants was measured using AlphLISA kit (Cat #AL217).

[4] = liposome (LIPGLO) assay, read-out: DGK zeta (liposome assay) IC50
[5] = ADPGLO assay, read-out: DGK alpha ADPGLO IC50
[6] = liposome assay, read-out: DGK zeta LIPGLO IC50
[7] = truncated DGK alpha, read-out: DGK alpha ADPGLO (Truncated) IC50
[8] = whole blood, normalized to 3 μM reference compound as 100% activation, read-out: IFN-γ Whole Blood Normalized EC50
[9] = Homo sapiens, 24 h, human whole blood, anti-CD3 plus anti-CD28 stimulation, 24 hours, read-out: IFN-γ Whole Blood EC50
[10] = Homo sapiens, whole blood, normalized to 3 μM reference compound as 100% activation, read-out: IFN-γ Whole Blood Normalized EC50

Sequence of human DGKζ (Q13574 other isoform, or with tags, fused parts or gaps): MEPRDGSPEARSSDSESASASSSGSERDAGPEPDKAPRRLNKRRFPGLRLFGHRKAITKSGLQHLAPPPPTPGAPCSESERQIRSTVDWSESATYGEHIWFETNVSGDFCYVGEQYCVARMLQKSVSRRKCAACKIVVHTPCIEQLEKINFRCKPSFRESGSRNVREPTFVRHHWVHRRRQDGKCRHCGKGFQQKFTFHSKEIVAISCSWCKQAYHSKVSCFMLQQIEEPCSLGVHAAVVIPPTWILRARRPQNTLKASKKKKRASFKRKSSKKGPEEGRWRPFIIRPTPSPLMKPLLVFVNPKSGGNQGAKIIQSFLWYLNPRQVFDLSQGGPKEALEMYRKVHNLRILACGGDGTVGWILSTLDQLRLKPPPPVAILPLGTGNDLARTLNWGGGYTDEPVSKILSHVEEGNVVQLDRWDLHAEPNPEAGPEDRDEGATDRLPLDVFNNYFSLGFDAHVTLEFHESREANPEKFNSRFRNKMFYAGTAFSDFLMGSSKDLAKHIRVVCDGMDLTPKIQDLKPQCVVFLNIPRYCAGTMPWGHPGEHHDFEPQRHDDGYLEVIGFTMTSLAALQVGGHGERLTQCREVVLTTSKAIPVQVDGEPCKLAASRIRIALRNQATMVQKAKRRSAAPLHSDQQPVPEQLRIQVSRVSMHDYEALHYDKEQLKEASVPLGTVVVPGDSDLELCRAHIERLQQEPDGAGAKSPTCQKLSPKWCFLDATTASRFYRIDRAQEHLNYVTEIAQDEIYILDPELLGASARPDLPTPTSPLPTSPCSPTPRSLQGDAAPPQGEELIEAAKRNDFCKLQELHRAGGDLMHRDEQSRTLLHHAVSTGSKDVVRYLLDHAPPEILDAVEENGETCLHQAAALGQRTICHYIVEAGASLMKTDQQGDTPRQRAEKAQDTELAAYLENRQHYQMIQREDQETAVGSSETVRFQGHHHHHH
Sequence of human DGKα (P23743 whole entry, looked up, the tested form may be a part): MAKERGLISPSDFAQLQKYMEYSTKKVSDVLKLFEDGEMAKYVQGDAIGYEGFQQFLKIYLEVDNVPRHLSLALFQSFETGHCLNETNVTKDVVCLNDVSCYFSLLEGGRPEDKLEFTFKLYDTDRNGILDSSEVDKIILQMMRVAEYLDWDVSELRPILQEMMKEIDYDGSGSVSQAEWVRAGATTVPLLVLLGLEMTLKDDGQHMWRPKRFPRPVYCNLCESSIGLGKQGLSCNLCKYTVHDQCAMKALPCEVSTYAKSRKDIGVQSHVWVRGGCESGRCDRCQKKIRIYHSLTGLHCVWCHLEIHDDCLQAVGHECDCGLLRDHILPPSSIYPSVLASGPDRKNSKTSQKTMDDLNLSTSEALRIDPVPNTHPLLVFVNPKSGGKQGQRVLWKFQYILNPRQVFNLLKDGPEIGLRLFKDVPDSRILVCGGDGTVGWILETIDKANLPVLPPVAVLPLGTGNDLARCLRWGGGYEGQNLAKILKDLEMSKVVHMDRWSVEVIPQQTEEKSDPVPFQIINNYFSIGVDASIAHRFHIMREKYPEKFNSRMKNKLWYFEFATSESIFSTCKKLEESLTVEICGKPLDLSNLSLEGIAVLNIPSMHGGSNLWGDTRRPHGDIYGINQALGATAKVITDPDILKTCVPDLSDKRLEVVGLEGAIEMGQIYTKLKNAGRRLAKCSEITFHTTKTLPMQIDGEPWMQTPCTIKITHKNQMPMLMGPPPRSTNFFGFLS

IC50 [1, 4] | IC50 [2, 5] | SMILES | other results
720 nM | 74 nM | CCC(c1ccc(C2OCCO2)cc1)N1C[C@H](C)N(c2nc(=O)n(C)c3ccc(C#N)nc23)C[C@H]1CC (stereo partly drawn) [Example 332, 4-((2S,5R)-4-(1-(4-(1,3-dioxolan-2-yl)phenyl)propyl)-5-ethyl-2-methylpiperazin-1-yl)-1-methyl-2-oxo-1,2-dihydropyrido[3,2-d]pyrimidine-6-carbonitrile] | 
4450 nM | 460 nM | CC[C@H]1CN(C(C)c2ccc(C(F)(F)F)cc2)[C@H](CC)CN1c1nc(=O)n(C)c2ccc(OC)nc12 (single isomer, unassigned) [Example 427] | 
28800 nM | 14200 nM | CCC(C1CC1)N1C[C@H](C)N(c2nc(=O)n(C)c3ccc(C#N)nc23)C[C@H]1C (stereo partly drawn) [Example 454, 4-((2S,5R)-4-(1-cyclopropylpropyl)-2,5-dimethylpiperazin-1-yl)-1-methyl-2-oxo-1,2-dihydropyrido[3,2-d]pyrimidine-6-carbonitrile] | 
910 nM | 280 nM | CC[C@@H]1CN(c2nc(=O)n(C)c3ccc(C(F)F)nc23)[C@@H](C)CN1C(C)c1ccc(C(F)(F)F)cc1 (stereo partly drawn) [Example 442, 6-(difluoromethyl)-4-((2S,5R)-5-ethyl-2-methyl-4-(1-(4-(trifluoromethyl)phenyl)ethyl)piperazin-1-yl)-1-methylpyrido[3,2-d]pyrimidin-2(1H)-one] | 
280 nM | 77 nM | CCOc1ccc(CN2C[C@H](C)N(c3nc(=O)n(C)c4ccc(C#N)nc34)C[C@H]2CC)cc1 [Example 310, 4-((2S,5R)-4-(4-ethoxybenzyl)-5-ethyl-2-methylpiperazin-1-yl)-1-methyl-2-oxo-1,2-dihydropyrido[3,2-d]pyrimidine-6-carbonitrile] | 
41700 nM |  | CC[C@H]1CN(C(C)c2ccc(C(F)(F)F)cc2)[C@H](CC)CN1c1nc(=O)n(C)c2ccc(OCCN(C)C)nc12 (stereo partly drawn) [Example 432, 4-((2S,5R)-2,5-diethyl-4-(1-(4-(trifluoromethyl)phenyl)ethyl)piperazin-1-yl)-6-(2-(dimethylamino)ethoxy)-1-methylpyrido[3,2-d]pyrimidin-2(1H)-one] | EC50 ([3]; human whole blood, anti-CD3 plus anti-CD28 stimulation, 24 hours, read-out: IFN-γ Whole Blood EC50): 20000 nM

More lines, now with the values behind:

SMILES | IC50 [1, 4] | IC50 [2, 5] | other results
CC[C@H]1CN(C(C)c2ccc3oc(C4CC4)nc3c2)[C@H](CC)CN1c1nc(=O)n(C)c2ccc(C#N)nc12 (stereo partly drawn) [Example 253, 4-((2S,5R)-4-(1-(2-cyclopropylbenzo[d]oxazol-5-yl)ethyl)-2,5-diethylpiperazin-1-yl)-1-methyl-2-oxo-1,2-dihydropyrido[3,2-d]pyrimidine-6-carbonitrile] |  |  | IC50 [1, 6]: 97 nM; IC50 [2, 7]: 3800 nM
CC[C@@H]1CN(c2nc(=O)n(C)c3ccc(C#N)nc23)[C@@H](CC)CN1Cc1ccc(C2CC2)cc1F [Example 242, 4-((2S,5R)-4-(4-cyclopropyl-2-fluorobenzyl)-2,5-diethylpiperazin-1-yl)-1-methyl-2-oxo-1,2-dihydropyrido[3,2-d]pyrimidine-6-carbonitrile] |  |  | IC50 [1, 6]: 190 nM; IC50 [2, 7]: 260 nM
CCC(c1ccc(C(F)(F)F)cc1)N1C[C@H](CC)N(c2nc(=O)n(C)c3ccc(Cl)nc23)C[C@H]1CC (single isomer, unassigned) [Example 422] | 6870 nM | 230 nM | 
CCC(C1CC1)N1C[C@H](C)N(c2nc(=O)n(C)c3ccc(C#N)nc23)C[C@H]1C (stereo partly drawn) [Example 453, 4-((2S,5R)-4-(1-cyclopropylpropyl)-2,5-dimethylpiperazin-1-yl)-1-methyl-2-oxo-1,2-dihydropyrido[3,2-d]pyrimidine-6-carbonitrile] | 79400 nM | 215000 nM | 
CC[C@@H]1CN(c2nc(=O)n(C)c3ccc(C#N)nc23)[C@@H](C)CN1C(C)c1ccc(C(F)(F)F)c(CN(C)C)c1 (stereo partly drawn) [Example 352, 4-((2S,5R)-4-(1-(3-((dimethylamino)methyl)-4-(trifluoromethyl)phenyl)ethyl)-5-ethyl-2-methylpiperazin-1-yl)-1-methyl-2-oxo-1,2-dihydropyrido[3,2-d]pyrimidine-6-carbonitrile] | 2720 nM | 14900 nM | 
CC[C@@H]1CN(c2nc(=O)n(C)c3ccc(C#N)nc23)[C@@H](C)CN1C(C)c1ccc(CNC(=O)OC)cc1 (stereo partly drawn) [Example 359, Methyl (4-(1-((2R,5S)-4-(6-cyano-1-methyl-2-oxo-1,2-dihydropyrido[3,2-d]pyrimidin-4-yl)-2-ethyl-5-methylpiperazin-1-yl)ethyl)benzyl)carbamate] | 220 nM | 24 nM | 
CCCC(c1ccc(C(F)(F)F)cc1)N1C[C@H](CC)N(c2nc(=O)n(C)c3ccc(C#N)nc23)C[C@H]1CC (stereo partly drawn) [Example 244, 4-((2S,5R)-2,5-Diethyl-4-(1-(4-(trifluoromethyl)phenyl)butyl)piperazin-1-yl)-1-methyl-2-oxo-1,2-dihydropyrido[3,2-d]pyrimidine-6-carbonitrile] |  |  | EC50 [3, 8]: 13300 nM
CC[C@@H]1CN(c2nc(=O)n(C)c3ccc(C#N)nc23)[C@@H](C)CN1C(c1ccc(F)cc1)c1cccc(C(F)F)n1 (stereo partly drawn) [Example 316, 4-((2 S,5R)-4-((6-(difluoromethyl)pyridin-2-yl)(4-fluorophenyl)methyl)-5-ethyl-2-methylpiperazin-1-yl)-1-methyl-2-oxo-1,2-dihydropyrido[3,2-d]pyrimidine-6-carbonitrile] | 31 nM | 87 nM | 
CCC(c1ccc(C2CC2)cc1)N1C[C@H](C)N(c2nc(=O)n(C)c3ccc(C#N)nc23)C[C@H]1CC (stereo partly drawn) [Example 300, 4-((2S,5R)-4-(1-(4-cyclopropylphenyl)propyl)-5-ethyl-2-methylpiperazin-1-yl)-1-methyl-2-oxo-1,2-dihydropyrido[3,2-d]pyrimidine-6-carbonitrile] |  |  | IC50 [1, 6]: 22 nM; IC50 [2, 7]: 13 nM
CC[C@@H]1CN(c2nc(=O)n(C)c3ccc(C#N)nc23)[C@@H](C)CN1C(C)c1ccc(C(F)(F)F)cc1 (single isomer, unassigned) [Example 7] |  |  | IC50 [2, 7]: 180 nM
CCC(C1CC1)N1C[C@H](C)N(c2nc(=O)n(C)c3ccc(C#N)nc23)C[C@H]1C (stereo partly drawn) [Example 455, 4-((2S,5R)-4-(1-cyclopropylpropyl)-2,5-dimethylpiperazin-1-yl)-1-methyl-2-oxo-1,2-dihydropyrido[3,2-d]pyrimidine-6-carbonitrile] | 7550 nM | 5120 nM | 
CCOc1ccc2c(n1)c(N1C[C@@H](CC)N(C(C)c3ccc(C(F)(F)F)cc3)C[C@@H]1CC)nc(=O)n2C (stereo partly drawn) [Example 429, 4-((2S,5R)-2,5-diethyl-4-(1-(4-(trifluoromethyl)phenyl)ethyl)piperazin-1-yl)-6-ethoxy-1-methylpyrido[3,2-d]pyrimidin-2(1H)-one] | 99500 nM |  | EC50 [3, 9]: 20000 nM
CC[C@@H]1CN(c2nc(=O)n(C)c3ccc(C#N)nc23)[C@@H](C)CN1Cc1ccc2c(c1)OC(F)(F)O2 [Example 55, 4-((2S,5R)-((2,2-difluorobenzo[d][1,3]dioxol-5-yl)methyl)-5-ethyl-2-methylpiperazin-1-yl)-1-methyl-2-oxo-1,2-dihydropyrido[3,2-d]pyrimidine-6-carbonitrile] |  |  | EC50 [3, 10]: 790 nM
CC[C@H]1CN(C(C)c2ccc(N3CCCC3=O)cc2)[C@H](CC)CN1c1nc(=O)n(C)c2ccc(C#N)nc12 (stereo partly drawn) [Example 231, 4-((2S,5R)-2,5-diethyl-4-(1-(4-(2-oxopyrrolidin-1-yl)phenyl)ethyl)piperazin-1-yl)-1-methyl-2-oxo-1,2-dihydropyrido[3,2-d]pyrimidine-6-carbonitrile] |  |  | EC50 [3, 8]: 9740 nM
CC[C@H]1CN(C(C)c2ccc(OC(F)(F)F)cc2F)[C@H](CC)CN1c1nc(=O)n(C)c2ccc(C#N)nc12 (single isomer, unassigned) [Example 39] |  |  | IC50 [1, 6]: 770 nM; EC50 [3, 8]: 2730 nM
CC[C@H]1CN(C(C)c2ccc(C(F)(F)F)cc2)[C@H](CC)CN1c1nc(=O)n(C)c2ccc(OC)nc12 (single isomer, unassigned) [Example 428] | 125000 nM |  | EC50 [3, 9]: 20000 nM
CCC[C@@H]1CN(c2nc(=O)n(C)c3ccc(C#N)nc23)[C@@H](C)CN1C(C)c1ccc(C(F)(F)F)cc1 (single isomer, unassigned) [Example 396] |  | 920 nM | 
CCC(c1ccc(C(F)(F)F)cc1)N1C[C@H](CC)N(c2nc(=O)n(C)c3ccc(C#N)nc23)C[C@H]1CC (single isomer, unassigned) [Example 5] |  |  | IC50 [2, 7]: 64 nM
C[C@@H]1CN(c2nc(=O)n(C)c3ccc(C#N)nc23)[C@@H](C)CN1C(c1ccc(F)cc1)c1ccc(C(F)(F)F)cn1 (stereo in doubt) [Example 126] |  |  | EC50 [3, 10]: 680 nM
CC[C@@H]1CN(c2nc(=O)n(C)c3ccc(C#N)nc23)[C@@H](C)CN1C(c1ccc(F)cc1)c1cc(C2CC2)on1 (single isomer, unassigned) [Example 102] |  |  | IC50 [1, 6]: 94 nM
CCOC(=O)[C@H]1C[C@@H]1Oc1ccc(C(C)N2C[C@H](CC)N(c3nc(=O)n(C)c4ccc(C#N)nc34)C[C@H]2CC)cc1 (stereo partly drawn) [Example 260, ethyl (1S,2S)-2-(4-(1-((2R,5S)-4-(6-cyano-1-methyl-2-oxo-1,2-dihydropyrido[3,2-d]pyrimidin-4-yl)-2,5-diethylpiperazin-1-yl)ethyl)phenoxy)cyclopropane-1-carboxylate] |  |  | IC50 [1, 6]: 3030 nM
